Our source for the IC50 values is patent US10576062B2, “Carbamoyloxymethyl triazole cyclohexyl acids as LPA antagonists” (Bristol-Myers Squibb Company, priority 2016, dated 2020).

T1 sequence (Q92633 whole entry): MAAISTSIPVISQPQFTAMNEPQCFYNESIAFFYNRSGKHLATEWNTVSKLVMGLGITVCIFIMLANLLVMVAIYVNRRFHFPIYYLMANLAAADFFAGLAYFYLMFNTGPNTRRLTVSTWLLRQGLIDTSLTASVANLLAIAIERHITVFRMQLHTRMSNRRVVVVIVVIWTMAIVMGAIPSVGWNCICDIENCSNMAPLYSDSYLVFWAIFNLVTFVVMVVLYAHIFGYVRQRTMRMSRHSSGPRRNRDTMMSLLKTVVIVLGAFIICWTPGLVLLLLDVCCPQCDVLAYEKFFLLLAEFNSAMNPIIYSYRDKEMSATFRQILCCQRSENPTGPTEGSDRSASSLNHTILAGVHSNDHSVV

This test has as its target T1, human LPA1 (Homo sapiens, UniProt Q92633).
T1 construct: expressed in transfected cells; host or cells: Chinese hamster ovary (CHO) cells
Nature of the test: LPA1 functional antagonist assay (LPA-induced calcium flux). Type of test: cell-based. As to conditions: CHO cells overexpressing human LPA1; inhibition of calcium flux induced by 10 nM LPA; read-out: hLPA1 IC50. In outline:
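CHO cells overexpressing human LPA1, loaded with calcium dye 30 min at 37° C, were preincubated 20 min at room temperature with compound (0.08 nM–5 μM, 0.5% DMSO) in HBSS/20 mM HEPES/0.1% fatty acid-free BSA.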
For orientation: Calcium assays in cells follow changes in intracellular calcium, usually with a dye or a luminescent sensor.
Turning to `CN(CC1CCC1)C(=O)OCc1c(-c2cnc(O[C@H]3CCC[C@H](C(=O)O)C3)c(C(F)(F)F)c2)nnn1C` [Example 239, (1S,3S)-3-((5-(5-((((cyclobutylmethyl)(methyl)carbamoyl)oxy)methyl)-1-methyl-1H-1,2,3-triazol-4-yl)-3-(trifluoromethyl)pyridin-2-yl)oxy)cyclohexane-1-carboxylic acid], the 50% inhibitory concentration (IC50) was 0.44 µM.

For the compound `CN(C(=O)OCc1c(-c2cnc(O[C@H]3CCC[C@H](C(=O)O)C3)c(C(F)(F)F)c2)nnn1C)C1CCC1` [Example 240, (1S,3S)-3-((5-(5-(((cyclobutyl(methyl)carbamoyl)oxy)methyl)-1-methyl-1H-1,2,3-triazol-4-yl)-3-(trifluoromethyl)pyridin-2-yl)oxy)cyclohexane-1-carboxylic acid], the IC50 worked out at 1.21 µM.

For `Cc1nc(-c2nnn(C)c2CCOC(=O)N(C)CC2CCC2)ccc1O[C@H]1CCC[C@H](C(=O)O)C1` [Example 241, (1S,3S)-3-((6-(5-(2-(((Cyclobutylmethyl)(methyl)carbamoyl)oxy)ethyl)-1-methyl-1H-1,2,3-triazol-4-yl)-2-methylpyridin-3-yl)oxy)cyclohexane-1-carboxylic Acid], the concentration for half-maximal inhibition (IC50) worked out at 0.041 µM.

In the case of `CCCN(C)C(=O)OCCc1c(-c2ccc(O[C@H]3CCC[C@H](C(=O)O)C3)c(C)n2)nnn1C` [Example 242, (1S,3S)-3-((2-Methyl-6-(1-methyl-5-(2-((methyl(propyl)carbamoyl)oxy)-ethyl)-1H-1,2,3-triazol-4-yl)pyridin-3-yl)oxy)cyclohexane-1-carboxylic acid], the IC50 came to 0.319 µM.

As for `Cc1nc(-c2nnn(C)c2CCOC(=O)N(C)C2CCCC2)ccc1O[C@H]1CCC[C@H](C(=O)O)C1` [Example 243, (1S,3S)-3-((6-(5-(2-((Cyclopentyl-(methyl)carbamoyl)oxy)ethyl)-1-methyl-1H-1,2,3-triazol-4-yl)-2-methylpyridin-3-yl)oxy)cyclohexane-1-carboxylic acid], the IC50 stood at 0.072 µM.

Consider `Cc1nc(-c2nnn(C)c2CCOC(=O)N(C)Cc2ccccc2)ccc1O[C@H]1CCC[C@H](C(=O)O)C1` [Example 244, (1S,3S)-3-((6-(5-(2-((Benzyl(methyl)-carbamoyl)oxy)ethyl)-1-methyl-1H-1,2,3-triazol-4-yl)-2-methylpyridin-3-yl)oxy)cyclohexane-1-carboxylic acid], for which the IC50 is 0.054 µM.

As to `Cc1nc(-c2nnn(C)c2CCOC(=O)N(C)CC(C)C)ccc1O[C@H]1CCC[C@H](C(=O)O)C1` [Example 245, (1S,3S)-3-((6-(5-(2-((Isobutyl-(methyl)carbamoyl)oxy)ethyl)-1-methyl-1H-1,2,3-triazol-4-yl)-2-methylpyridin-3-yl)oxy)cyclohexane-1-carboxylic acid], the IC50 is 0.069 µM.

Regarding `Cc1nc(-c2nnn(C)c2CCOC(=O)N2CCCC2)ccc1O[C@H]1CCC[C@H](C(=O)O)C1` [Example 246, (2S,3S)-3-((2-Methyl-6-(1-methyl-5-(2-((pyrrolidine-1-carbonyl)oxy)-ethyl)-1H-1,2,3-triazol-4-yl)pyridin-3-yl)oxy)cyclohexane-1-carboxylic acid], the concentration for half-maximal inhibition (IC50) is 0.21 µM.

In the case of `Cc1nc(-c2nnn(C)c2CCOC(=O)N(C)C2CCC2)ccc1O[C@H]1CCC[C@H](C(=O)O)C1` [Example 247, (1S,3S)-3-((6-(5-(2-((Cyclobutyl(methyl)carbamoyl)oxy)ethyl)-1-methyl-1H-1,2,3-triazol-4-yl)-2-methylpyridin-3-yl)oxy)cyclo-hexane-1-carboxylic acid], the IC50 came to 0.041 µM.

For the compound `Cc1nc(-c2nnn(C)c2CCOC(=O)NCC2CCC2)ccc1O[C@H]1CCC[C@H](C(=O)O)C1` [Example 248, (1S,3S)-3-((6-(5-(2-(((Cyclobutyl-methyl)carbamoyl)oxy)ethyl)-1-methyl-1H-1,2,3-triazol-4-yl)-2-methylpyridin-3-yl)oxy)cyclohexane-1-carboxylic acid], the IC50 is 0.144 µM.

For `Cc1nc(-c2nnn(C)c2CCCOC(=O)N(C)Cc2ccccc2)ccc1O[C@H]1CCC[C@H](C(=O)O)C1` [Example 249, (1S,3S)-3-((6-(5-(3-((Benzyl(methyl)carbamoyl)oxy)propyl)-1-methyl-1H-1,2,3-triazol-4-yl)-2-methylpyridin-3-yl)oxy)cyclohexane-1-carboxylic Acid], the IC50 stood at 0.122 µM.

With `CCCOCCN(C)C(=O)OCc1c(-c2ccc(O[C@H]3CCC[C@H](C(=O)O)C3)c(C)n2)nnn1C` [Example 250, (1S,3S)-3-((2-methyl-6-(1-methyl-5-(((methyl(2-propoxyethyl)carbamoyl)oxy)methyl)-1H-1,2,3-triazol-4-yl)pyridin-3-yl)oxy)cyclohexane-1-carboxylic acid], the IC50 is 0.314 µM.

Regarding `C[C@@H]1C[C@H]1CN(C)C(=O)OCc1c(-c2ccc(O[C@H]3CCC[C@H](C(=O)O)C3)cn2)nnn1C` [Example 251, (1S,3S)-3-((6-(1-methyl-5-(((methyl(((1R,2R)-2-methylcyclopropyl)methyl)carbamoyl)oxy)methyl)-1H-1,2,3-triazol-4-yl)pyridin-3-yl)oxy)cyclohexane-1-carboxylic acid], the IC50 was determined as 0.027 µM.

On to `C[C@H]1C[C@@H]1CN(C)C(=O)OCc1c(-c2ccc(O[C@H]3CCC[C@H](C(=O)O)C3)cn2)nnn1C` [Example 252, (1S,3S)-3-((6-(1-methyl-5-(((methyl(((1S,2S)-2-methylcyclopropyl)methyl)carbamoyl)oxy)methyl)-1H-1,2,3-triazol-4-yl)pyridin-3-yl)oxy)cyclohexane-1-carboxylic acid], for which the IC50 was 0.029 µM.

`Cc1nc(-c2nnn(C)c2COC(=O)N(C)CC(C)(C)F)ccc1O[C@H]1CCC[C@H](C(=O)O)C1` [Example 253, (1S,3S)-3-((6-(5-((((2-fluoro-2-methylpropyl)(methyl)carbamoyl)oxy)methyl)-1-methyl-1H-1,2,3-triazol-4-yl)-2-methylpyridin-3-yl)oxy)cyclohexane-1-carboxylic acid]: the concentration for half-maximal inhibition (IC50) came out at 0.134 µM.

For the compound `Cc1nc(-c2nnn(C)c2COC(=O)N(C)CCCC(C)F)ccc1O[C@H]1CCC[C@H](C(=O)O)C1` (stereo partly drawn) [Example 256, (1S,3S)-3-((6-(5-((((4-fluoropentyl)(methyl)carbamoyl)oxy)methyl)-1-methyl-1H-1,2,3-triazol-4-yl)-2-methylpyridin-3-yl)oxy)cyclohexane-1-carboxylic acid], the IC50 was found to be 0.017 µM.

In the case of `Cc1nc(-c2nnn(C)c2COC(=O)N(C)C[C@@H]2C[C@H]2C)ccc1O[C@H]1CCC[C@H](C(=O)O)C1` [Example 257, (1S,3S)-3-((2-methyl-6-(1-methyl-5-(((methyl(((1R,2R)-2-methylcyclopropyl)methyl)carbamoyl)oxy)methyl)-1H-1,2,3-triazol-4-yl)pyridin-3-yl)oxy)cyclohexane-1-carboxylic Acid], the IC50 was 0.018 µM.

On to `Cc1nc(-c2nnn(C)c2COC(=O)N(C)CC(C)(F)F)ccc1O[C@H]1CCC[C@H](C(=O)O)C1` [Example 259, (1S,3 S)-3-((6-(5-((((2,2-difluoropropyl)(methyl)carbamoyl)oxy)methyl)-1-methyl-1H-1,2,3-triazol-4-yl)-2-methylpyridin-3-yl)oxy)cyclohexane-1-carboxylic Acid], for which the IC50 was 0.134 µM.

With `Cc1nc(-c2nnn(C)c2COC(=O)N(C)CCC(C)F)ccc1O[C@H]1CCC[C@H](C(=O)O)C1` (stereo partly drawn) [Example 260, (1S,3 S)-3-((6-(5-((((3-fluorobutyl)(methyl)carbamoyl)oxy)methyl)-1-methyl-1H-1,2,3-triazol-4-yl)-2-methylpyridin-3-yl)oxy)cyclohexane-1-carboxylic Acid], the IC50 is 0.05 µM.

Take `Cc1nc(-c2nnn(C)c2COC(=O)N(C)CC(C)F)ccc1O[C@H]1CCC[C@H](C(=O)O)C1` (stereo partly drawn) [Example 261, (1S,3S)-3-((6-(5-((((2-fluoropropyl)(methyl)carbamoyl)oxy)methyl)-1-methyl-1H-1,2,3-triazol-4-yl)-2-methylpyridin-3-yl)oxy)cyclohexane-1-carboxylic acid]: the concentration for half-maximal inhibition (IC50) stood at 0.145 µM.

In the case of `Cc1nc(-c2nnn(C)c2COC(=O)N(C)CC2CC2C)ccc1O[C@H]1CCC[C@H](C(=O)O)C1` (stereo partly drawn) [Example 262, (1S,3S)-3-((2-methyl-6-(1-methyl-5-(((methyl((2-methylcyclopropyl)methyl)carbamoyl)oxy)methyl)-1H-1,2,3-triazol-4-yl)pyridin-3-yl)oxy)cyclohexane-1-carboxylic acid], the IC50 was determined as 0.029 µM.

As for `Cc1nc(-c2nnn(C)c2COC(=O)N(C)CC2(C)CC2)ccc1O[C@H]1CCC[C@H](C(=O)O)C1` [Example 263, (1S,3S)-3-((2-methyl-6-(1-methyl-5-(((methyl((1-methylcyclopropyl)methyl)carbamoyl)oxy)methyl)-1H-1,2,3-triazol-4-yl)pyridin-3-yl)oxy)cyclohexane-1-carboxylic acid], the IC50 came to 0.076 µM.

Take `Cc1nc(-c2nnn(C)c2COC(=O)N(C)CC(C)(C)C)ccc1O[C@H]1CCC[C@H](C(=O)O)C1` [Example 264, (1S,3S)-3-((2-methyl-6-(1-methyl-5-(((methyl(neopentyl)carbamoyl)oxy)methyl)-1H-1,2,3-triazol-4-yl)pyridin-3-yl)oxy)cyclohexane-1-carboxylic acid]: the IC50 was determined as 0.076 µM.

Take `CN(CC1CCC1)C(=O)OCc1c(-c2ccc(O[C@H]3CCC[C@H](C(=O)O)C3)c(CO)n2)nnn1C` [Example 265, (1S,3 S)-3-((6-(5-((((cyclobutylmethyl)(methyl)carbamoyl)oxy)methyl)-1-methyl-1H-1,2,3-triazol-4-yl)-2-(hydroxymethyl)pyridin-3-yl)oxy)cyclohexane-1-carboxylic Acid]: the IC50 was found to be 0.068 µM.

For the compound `CN(CC1CCC1)C(=O)OCc1c(-c2ccc(O[C@H]3CCC[C@H](C(=O)O)C3)c(CF)n2)nnn1C` [Example 266, (1S,3 S)-3-((6-(5-((((cyclobutylmethyl)(methyl)carbamoyl)oxy)methyl)-1-methyl-1H-1,2,3-triazol-4-yl)-2-(fluoromethyl)pyridin-3-yl)oxy)cyclohexane-1-carboxylic Acid], the IC50 came to 0.027 µM.

The term IC50 denotes the point on the concentration scale where inhibition reaches its midpoint.
